Key:
[1] = tested on: EKVX; assay: Cytotoxicity against human EKVX cells assessed as cell growth at 10^-7 M after 24 hrs by SRB assay; assay type: functional; conditions: read-out: Activity
[2] = tested on: NCI-H226; assay: Cytotoxicity against human NCI-H226 cells assessed as cell growth at 10^-7 M after 24 hrs by SRB assay; assay type: functional; conditions: NCI-H226, 24 h, read-out: Activity
[3] = Cytotoxicity against human SNB75 cells assessed as cell growth at 10^-7 M after 24 hrs by SRB assay; assay type: functional; conditions: SNB-75, 24 h, read-out: Activity
[4] = tested on: Malme-3M; assay: Cytotoxicity against human MALME-3M cells assessed as cell growth at 10^-7 M after 24 hrs by SRB assay; assay type: functional; conditions: read-out: Activity
[5] = Cytotoxicity against human UACC257 cells assessed as cell growth at 10^-7 M after 24 hrs by SRB assay; assay type: functional; conditions: UACC-257, 24 h, read-out: Activity
[6] = Cytotoxicity against human OVCAR8 cells assessed as cell growth at 10^-7 M after 24 hrs by SRB assay; assay type: functional; conditions: OVCAR-8, 24 h, read-out: Activity
[7] = tested on: NCI-H460; assay: Cytotoxicity against human NCI-H460 cells after 24 hrs by SRB assay; assay type: functional; conditions: NCI-H460, 24 h
[8] = Cytotoxicity against human HCC2998 cells after 24 hrs by SRB assay; assay type: functional, cell-based; conditions: HCC 2998, 24 h
[9] = tested on: NCI-H226; assay: Cytotoxicity against human NCI-H226 cells assessed as cell growth at 10^-4 M after 24 hrs by SRB assay; assay type: functional; conditions: NCI-H226, 24 h, read-out: Activity
[10] = tested on: NCI-H460; assay: Cytotoxicity against human NCI-H460 cells assessed as cell growth at 10^-4 M after 24 hrs by SRB assay; assay type: functional; conditions: NCI-H460, 24 h, read-out: Activity
[11] = Cytotoxicity against human HCC2998 cells assessed as cell growth at 10^-4 M after 24 hrs by SRB assay; assay type: functional; conditions: HCC 2998, 24 h, read-out: Activity
[12] = Cytotoxicity against human SF295 cells assessed as cell growth at 10^-4 M after 24 hrs by SRB assay; assay type: functional; conditions: SF-295, 24 h, read-out: Activity
[13] = tested on: MDA-MB-231; assay: Cytotoxicity against human MDA-MB-231 cells assessed as cell growth at 10^-7 M after 24 hrs by SRB assay; assay type: functional; conditions: MDA-MB-231, 24 h, read-out: Activity
[14] = tested on: CCRF-CEM; assay: Cytotoxicity against human CCRF-CEM cells assessed as cell growth at 10^-6 M after 24 hrs by SRB assay; assay type: functional; conditions: read-out: Activity
[15] = Cytotoxicity against human HL-60(TB) cells assessed as cell growth at 10^-6 M after 24 hrs by SRB assay; assay type: functional; conditions: HL-60, 24 h, read-out: Activity
[16] = tested on: MDA-MB-435; assay: Cytotoxicity against human MDA-MB-435 cells assessed as cell growth at 10^-4 M after 24 hrs by SRB assay; assay type: functional; conditions: MDA-MB-435, 24 h, read-out: Activity
[17] = tested on: MDA-MB-231; assay: Cytotoxicity against human MDA-MB-231 cells assessed as cell growth at 10^-4 M after 24 hrs by SRB assay; assay type: functional; conditions: MDA-MB-231, 24 h, read-out: Activity
[18] = Cytotoxicity against human BT549 cells assessed as cell growth at 10^-4 M after 24 hrs by SRB assay; assay type: functional; conditions: BT-549, 24 h, read-out: Activity
[19] = Cytotoxicity against human LOXIMVI cells assessed as cell growth at 10^-6 M after 24 hrs by SRB assay; assay type: functional; conditions: LOX IMVI, read-out: Activity
[20] = tested on: Malme-3M; assay: Cytotoxicity against human MALME-3M cells assessed as cell growth at 10^-6 M after 24 hrs by SRB assay; assay type: functional; conditions: read-out: Activity
[21] = Cytotoxicity against human IGROV1 cells assessed as cell growth at 10^-6 M after 24 hrs by SRB assay; assay type: functional; conditions: IGROV-1, 24 h, read-out: Activity
[22] = Cytotoxicity against human OVCAR5 cells assessed as cell growth at 10^-6 M after 24 hrs by SRB assay; assay type: functional; conditions: OVCAR-5, 24 h, read-out: Activity
[23] = Cytotoxicity against human TK10 cells assessed as cell growth at 10^-6 M after 24 hrs by SRB assay; assay type: functional; conditions: TK-10, 24 h, read-out: Activity
[24] = Cytotoxicity against human NCI-ADR-RES cells after 24 hrs by SRB assay; assay type: functional
[25] = Cytotoxicity against human SKOV3 cells after 24 hrs by SRB assay; assay type: functional; conditions: SK-OV-3, 24 h
[26] = tested on: 786-0; assay: Cytotoxicity against human 786-0 cells after 24 hrs by SRB assay; assay type: functional, cell-based; conditions: 786-0, 24 h
[27] = Cytotoxicity against human HOP62 cells assessed as cell growth at 10^-8 M after 24 hrs by SRB assay; assay type: functional; conditions: HOP-62, 24 h, read-out: Activity
[28] = tested on: HT-29; assay: Cytotoxicity against human HT-29 cells assessed as cell growth at 10^-8 M after 24 hrs by SRB assay; assay type: functional; conditions: HT-29, 24 h, read-out: Activity
[29] = tested on: NCI-H23; assay: Cytotoxicity against human NCI-H23 cells assessed as cell growth at 10^-5 M after 24 hrs by SRB assay; assay type: functional; conditions: NCI-H23, 24 h, read-out: Activity
[30] = Cytotoxicity against human SF539 cells assessed as cell growth at 10^-5 M after 24 hrs by SRB assay; assay type: functional; conditions: SF-539, 24 h, read-out: Activity
[31] = Cytotoxicity against human NCI-ADR-RES cells assessed as cell growth at 10^-5 M after 24 hrs by SRB assay; assay type: functional; conditions: read-out: Activity
[32] = Cytotoxicity against human PC3 cells assessed as cell growth at 10^-5 M after 24 hrs by SRB assay; assay type: functional; conditions: PC-3, 24 h, read-out: Activity
[33] = tested on: MCF7; assay: Cytotoxicity against human MCF7 cells assessed as cell growth at 10^-5 M after 24 hrs by SRB assay; assay type: functional; conditions: MCF7, 24 h, read-out: Activity
[34] = Cytotoxicity against human Hs 578T cells assessed as cell growth at 10^-5 M after 24 hrs by SRB assay; assay type: functional; conditions: read-out: Activity
[35] = Cytotoxicity against human OVCAR8 cells assessed as growth inhibition at 10 uM after 24 hrs by SRB assay; assay type: functional; conditions: OVCAR-8, 24 h, read-out: GI
[36] = read-out: LC50 (the source's name)
[37] = read-out: pLC50 (the source's name) (converted)

O=C(Nc1cc(-c2cccnc2)nc(NCCCN2CCOCC2)n1)c1cc(Br)cc(C(F)(F)F)c1
growth at 0.1 µM [1]: 80% | growth at 0.1 µM [2]: 93% | growth at 0.1 µM [3]: 84% | growth at 0.1 µM [4]: 95% | growth at 0.1 µM [5]: 100% | growth at 0.1 µM [6]: 101% | GI50 ([7]; read-out: GI50): 2970 nM | CC50 [7, 36]: 44.1 µM | TGI ([7]; read-out: TGI): 8.94 µM | GI50 ([7]; read-out: pGI50 (converted)): 2950 nM | CC50 [7, 37]: 43.7 µM | TGI ([7]; read-out: pTGI (converted)): 8.91 µM | GI50 [8]: 1780 nM | CC50 [8, 36]: 6.89 µM | TGI ([8]; read-out: TGI): 3.49 µM | CC50 [8, 37]: 6.92 µM | TGI ([8]; read-out: pTGI (converted)): 3.47 µM | growth at 100 µM [9]: -89% | growth at 100 µM [10]: -75% | growth at 100 µM [11]: -97% | growth at 100 µM [12]: -92% | growth at 0.1 µM [13]: 87% | growth at 1 µM [14]: 103% | growth at 1 µM [15]: 88% | growth at 100 µM [16]: -100% | growth at 100 µM [17]: -84% | growth at 100 µM [18]: -86% | growth at 1 µM [19]: 88% | growth at 1 µM [20]: 90% | growth at 1 µM [21]: 92% | growth at 1 µM [22]: 92% | growth at 1 µM [23]: 88% | GI50 ([24]; read-out: GI50): 2600 nM | CC50 [24, 36]: 42.9 µM | TGI ([24]; read-out: TGI): 9.11 µM | GI50 ([24]; read-out: pGI50 (converted)): 2570 nM | CC50 [24, 37]: 42.7 µM | TGI ([24]; read-out: pTGI (converted)): 9.12 µM | GI50 ([25]; read-out: GI50): 7.26 µM | CC50 [25, 36]: 44.9 µM | TGI ([25]; read-out: TGI): 19.9 µM | GI50 ([25]; read-out: pGI50 (converted)): 7.24 µM | CC50 [25, 37]: 44.7 µM | TGI ([25]; read-out: pTGI (converted)): 20 µM | IC50 [26]: 1550 nM | GI50 ([26]; read-out: GI50): 1550 nM | CC50 [26, 36]: 6.47 µM | TGI ([26]; read-out: TGI): 3.17 µM | GI50 ([26]; read-out: pGI50 (converted)): 1550 nM | CC50 [26, 37]: 6.46 µM | TGI ([26]; read-out: pTGI (converted)): 3.16 µM | growth at 0.01 µM [27]: 94% | growth at 0.01 µM [28]: 100% | growth at 10 µM [29]: 18% | growth at 10 µM [30]: -73% | growth at 10 µM [31]: -4% | growth at 10 µM [32]: 23% | growth at 10 µM [33]: -3% | growth at 10 µM [34]: -7%

COCCCNc1nc(NC(=O)c2cc(OC)cc(OC)c2)cc(-c2cccnc2)n1
inhibition of growth at 10 µM [35]: 20.7%

Source: ChEMBL document CHEMBL3774345, “Synthesis of new diarylamides with pyrimidinyl pyridine scaffold and evaluation of their anti-proliferative effect on cancer cell lines” (Bioorg Med Chem Lett, 2016)
